Measurements reported in US8987445B2, “Sulfonamide compounds having TRPM8 antagonistic activity” (Mitsubishi Tanabe Pharma Corporation, priority 2011, dated 2015).

Target: human TRPM8 (Homo sapiens (Human), UniProt Q7Z2W7)
Assay: TRPM8 inhibition assay (menthol-induced calcium influx, FDSS)
Format: cell-based
Conditions: HEK293 cells stably expressing human TRPM8; 100 μM menthol; Fura-2AM Ca2+ signal; read-out: TRPM8 Blocking Test (IC50)
Description: The functional activity of compounds was determined by measuring changes in intracellular calcium concentration using a Ca^2+ sensitive fluorescent dye. The changes in fluorescent signal were monitored by the cell imaging technology by Hamamatsu Photonics's Functional Drug Screening System (FDSS). […] HEK293 cells stably expressing human TRPM8 were grown in flasks. On assay day, the culture medium was removed, and cells were washed with phosphate-buffered saline (PBS) and harvested with PBS containing 2 mM ethylenediaminetetraacetic acid, disodium salt (EDTA, 2Na). […] Subsequently, suspended 20,000 to 50,000 cells per well were incubated with test compound (at varying concentrations) in each well for 20 min at 37° C. Changes in intracellular Ca^2+ evoked by 100 μM menthol were measured for 2 min using FDSS. IC50 vales were determined from four-point concentration-response studies. Curves were generated using the average of quadruplicate wells for each data point.

human TRPM8, sequence (Q7Z2W7 whole entry): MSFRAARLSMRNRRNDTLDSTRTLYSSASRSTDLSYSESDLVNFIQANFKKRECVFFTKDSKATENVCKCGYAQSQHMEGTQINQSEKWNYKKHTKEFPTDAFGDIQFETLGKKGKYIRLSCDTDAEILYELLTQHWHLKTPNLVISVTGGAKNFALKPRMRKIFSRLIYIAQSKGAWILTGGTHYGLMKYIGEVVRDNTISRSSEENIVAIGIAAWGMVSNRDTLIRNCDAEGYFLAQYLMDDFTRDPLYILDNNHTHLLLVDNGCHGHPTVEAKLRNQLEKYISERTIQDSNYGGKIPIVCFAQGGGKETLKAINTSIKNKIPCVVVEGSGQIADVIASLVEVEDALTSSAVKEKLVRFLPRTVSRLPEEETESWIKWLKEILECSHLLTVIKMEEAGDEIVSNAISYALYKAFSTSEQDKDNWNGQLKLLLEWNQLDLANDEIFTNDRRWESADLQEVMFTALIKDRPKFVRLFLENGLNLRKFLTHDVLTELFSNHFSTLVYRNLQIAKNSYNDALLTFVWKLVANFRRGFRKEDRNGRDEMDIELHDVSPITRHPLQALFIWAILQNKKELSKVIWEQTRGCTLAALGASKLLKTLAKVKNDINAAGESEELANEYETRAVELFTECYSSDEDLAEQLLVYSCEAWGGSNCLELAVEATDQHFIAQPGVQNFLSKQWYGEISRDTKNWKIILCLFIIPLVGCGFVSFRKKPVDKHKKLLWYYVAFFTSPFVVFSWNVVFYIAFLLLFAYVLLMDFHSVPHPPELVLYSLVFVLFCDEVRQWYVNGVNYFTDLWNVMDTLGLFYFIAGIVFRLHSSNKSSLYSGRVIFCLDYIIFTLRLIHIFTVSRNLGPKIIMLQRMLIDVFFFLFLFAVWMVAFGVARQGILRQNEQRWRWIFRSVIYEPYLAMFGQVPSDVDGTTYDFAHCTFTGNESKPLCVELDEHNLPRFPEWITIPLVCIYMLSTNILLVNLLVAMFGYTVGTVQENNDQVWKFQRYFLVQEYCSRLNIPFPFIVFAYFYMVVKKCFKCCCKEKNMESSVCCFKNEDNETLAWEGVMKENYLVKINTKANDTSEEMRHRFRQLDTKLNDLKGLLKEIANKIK

| Structure (SMILES) | IC50 [nM] |
| --- | --- |
| Cc1c(N(Cc2ccc(-c3cccc(F)c3)cc2)S(=O)(=O)c2ccc(C(=O)O)cc2)ncc2ccccc12 [Example 89] | 15 |
| Cc1c(N(Cc2ccc3c(c2)CCC3(O)C(F)(F)F)S(=O)(=O)c2ccc(C(=O)O)cc2)ncc2ccccc12 (stereo not shown) [Example 173] | 78 |
| Cc1c(N(Cc2ccc(OC(F)(F)F)cc2)S(=O)(=O)c2ccc(C(=O)O)cc2)nc(OC(C)C)c2ccccc12 [Example 100, 4-({(1-isopropoxy-4-methylisoquinolin-3-yl)[4-(trifluoromethoxy)benzyl]amino}sulfonyl)benzoic acid] | 21 |
| O=C(O)c1ccc(S(=O)(=O)N(Cc2ccc(OC(F)(F)F)cc2)c2cc3ccccc3cn2)cc1 [Example 156] | 23 |
| Cc1c(N(Cc2ccc(OC(F)(F)F)cc2)S(=O)(=O)c2ccc(C(=O)O)cc2)nc(C(C)C)c2ccccc12 [Example 225] | 2.8 |
| COC(C)(c1ccc(CN(c2ncc3ccccc3c2C)S(=O)(=O)c2ccc(C(=O)O)cc2)cc1Cl)C(F)(F)F (stereo not shown) [Example 222] | 1.6 |
| Cc1c(N(Cc2ccc(C(C)(C)C)cc2)S(=O)(=O)c2ccc(C(=O)O)cc2)ncc2ccccc12 [Example 23] | 1.8 |
| Cc1c(N(Cc2sc3ccccc3c2Cl)S(=O)(=O)c2ccc(C(=O)O)cc2)ncc2ccccc12 [Example 197] | 4.6 |
| Cc1c(N(Cc2ccc(C(O)(C3CC3)C(F)(F)F)cc2)S(=O)(=O)c2ccc(C(=O)O)cc2)ncc2ccccc12 (stereo not shown) [Example 177] | 30 |
| O=C(O)c1ccc(S(=O)(=O)N(Cc2ccc(OC(F)(F)F)cc2)c2ncc(Cl)c3ccccc23)cc1 [Example 130] | 94 |
| Cc1c(N(Cc2ccc(OC(F)(F)F)cc2)S(=O)(=O)c2ccc(C(=O)O)cc2)nc(Br)c2ccccc12 [Example 129] | 15 |
| Cc1c(N(Cc2ccc(OC(F)(F)F)cc2)S(=O)(=O)c2ccc(C(=O)O)cc2)nc(C2CCCC2)c2ccccc12 [Example 226] | 9.2 |
| Cc1c(N(C2CCc3cc(OC(F)(F)F)ccc32)S(=O)(=O)c2ccc(C(=O)O)cc2)ncc2ccccc12 (stereo not shown) [Example 179] | 2.1 |
| Cc1cc2ccccc2nc1N(Cc1ccc(C(F)(F)C2CC2)cc1)S(=O)(=O)c1ccc(C(=O)O)cc1 [Example 182] | 4 |
| Cc1cc2ccccc2nc1N(Cc1cccc(C(F)(F)C2CC2)c1)S(=O)(=O)c1ccc(C(=O)O)cc1 [Example 206] | 21 |
| Cc1c(N(Cc2ccc(C(F)(F)F)cn2)S(=O)(=O)c2ccc(C(=O)O)cc2)ncc2ccccc12 [Example 66] | 38 |
| Cn1ccc2c(N(Cc3ccc(OC(F)(F)F)cc3)S(=O)(=O)c3ccc(C(=O)O)cc3)ncc(Cl)c21 [Example 211] | 987 |
| Cc1c(N(Cc2ccc3cn[nH]c3c2)S(=O)(=O)c2ccc(C(=O)O)cc2)ncc2ccccc12 [Example 178] | 601 |
| Cc1c(N(Cc2ccc3ccccc3c2)S(=O)(=O)c2ccc(C(=O)O)cc2)ncc2ccccc12 [Example 32] | 8.6 |
| CONC(=O)c1ccc(S(=O)(=O)N(Cc2ccc(OC(F)(F)F)cc2)c2ncc3ccccc3c2C)cc1 [Example 124, N-methoxy-4-({(4-methylisoquinolin-3-yl)[4-(trifluoromethoxy)benzyl]amino}sulfonyl)benzamide] | 13 |
| CCc1c(N(Cc2ccc(OC(F)(F)F)cc2)S(=O)(=O)c2ccc(C(=O)O)cc2)ncc2ccccc12 [Example 155] | 6.2 |
| Cc1cc2ccc(F)cc2nc1N(Cc1ccc(OC(F)(F)F)cc1)S(=O)(=O)c1ccc(C(=O)O)cc1 [Example 146] | 70 |

| Structure (SMILES) | IC50 [nM] |
| --- | --- |
| Cc1cc2ccccc2nc1N(Cc1ccc(F)c(C(F)(F)F)c1)S(=O)(=O)c1ccc(C(=O)O)cc1 [Example 20] | 12 |
| Cc1c(N(Cc2ccccc2)S(=O)(=O)c2ccc(C(=O)O)cc2)nc(C2CC2)c2ccccc12 [Example 139] | 12 |
| CCOC(C)(c1ccc(CN(c2ncc3ccccc3c2C)S(=O)(=O)c2ccc(C(=O)O)cc2)cc1F)C(F)(F)F (stereo not shown) [Example 220] | 5 |
| Cc1cc2ccccc2nc1N(Cc1ccc(C(F)(F)C2CC2)c(F)c1)S(=O)(=O)c1ccc(C(=O)O)cc1 [Example 204] | 3.1 |
| CC(O)c1c(N(Cc2ccc(OC(F)(F)F)cc2)S(=O)(=O)c2ccc(C(=O)O)cc2)ncc2ccccc12 (stereo not shown) [Example 113, 4-({[4-(1-hydroxyethyl)isoquinolin-3-yl][4-(trifluoromethoxy)benzyl]amino}sulfonyl)benzoic acid] | 25 |
| Cc1c(N(Cc2ccc(-c3ccccc3F)cc2)S(=O)(=O)c2ccc(C(=O)O)cc2)ncc2ccccc12 [Example 88] | 10 |
| Cc1c(N(Cc2ccc(C(C)(O)C(F)(F)F)c(Cl)c2)S(=O)(=O)c2ccc(C(=O)O)cc2)ncc2ccccc12 (stereo not shown) [Example 172] | 15 |
| Cc1c(N(Cc2ccc(C(C)(O)C(F)(F)F)c(F)c2)S(=O)(=O)c2ccc(C(=O)O)cc2)ncc2ccccc12 (stereo not shown) [Example 169] | 55 |
| NC(=O)c1ccc(S(=O)(=O)N(Cc2ccc(OC(F)(F)F)cc2)c2ncc3ccccc3c2C(F)(F)F)cc1 [Example 242] | 10 |
| Cc1c(N(Cc2ccc3c(c2)c(Cl)cn3C)S(=O)(=O)c2ccc(C(=O)O)cc2)ncc2ccccc12 [Example 237] | 12 |
| Cc1c(N(Cc2ccc(F)c(C(F)(F)C3CC3)c2)S(=O)(=O)c2ccc(C(=O)O)cc2)ncc2ccccc12 [Example 207] | 11 |
| Cn1ccc2c(Cl)cnc(N(Cc3ccc(OC(F)(F)F)cc3)S(=O)(=O)c3ccc(C(=O)O)cc3)c21 [Example 6, sodium 4-({(4-chloro-1-methyl-1H-pyrrolo[2,3-c]pyridin-7-yl)[4-(trifluoromethoxy)benzyl]amino}sulfonyl)benzoate] | 22 |
| Cc1c(N(Cc2ccc(COC(F)(F)F)cc2)S(=O)(=O)c2ccc(C(=O)O)cc2)ncc2ccccc12 [Example 192] | 8.8 |
| Cc1c(N(Cc2cccc3ccccc23)S(=O)(=O)c2ccc(C(=O)O)cc2)ncc2ccccc12 [Example 31] | 65 |
| Cc1cc2ccccc2nc1N(Cc1ccc(C(F)(F)C2CC2)c(Cl)c1)S(=O)(=O)c1ccc(C(=O)O)cc1 [Example 202] | 1.4 |
| CC(C)c1nc(N(Cc2ccc(OC(F)(F)F)cc2)S(=O)(=O)c2ccc(C(=O)O)cc2)c(C2CC2)c2ccccc12 [Example 231] | 6.9 |
| Cc1c(N(Cc2ccc(OC(F)(F)F)cc2)S(=O)(=O)c2ccc(C(=O)O)cc2)nc(N2CCCC2)c2ccccc12 [Example 99, 4-({(4-methyl-1-pyrrolidin-1-ylisoquinolin-3-yl)[4-(trifluoromethoxy)benzyl]amino}sulfonyl)benzoic acid] | 29 |
| COC(C)(c1ccc(CN(c2ncc3ccccc3c2C)S(=O)(=O)c2ccc(C(=O)O)cc2)cc1F)C(F)(F)F (stereo not shown) [Example 219] | 2.6 |
| CC(C)c1nc(N(Cc2ccc(OC(F)(F)F)cc2)S(=O)(=O)c2ccc(C(=O)O)cc2)c(C(F)(F)F)c2ccccc12 [Example 110, 4-({[1-isopropyl-4-(trifluoromethyl)isoquinolin-3-yl][4-(trifluoromethoxy)benzyl]amino}sulfonyl)benzoic acid] | 7.4 |
| CCc1cc2ccccc2nc1N(Cc1ccc(OC(F)(F)F)cc1)S(=O)(=O)c1ccc(C(=O)O)cc1 [Example 144] | 54 |
| Cc1c(N(Cc2ccc3cc[nH]c3c2)S(=O)(=O)c2ccc(C(=O)O)cc2)ncc2ccccc12 [Example 117, 4-{[(1H-indol-6-ylmethyl)(4-methylisoquinolin-3-yl)amino]sulfonyl}benzoic acid] | 54 |
